Holding throughout (format): cell-based
In one assay the target is T1, GASC1 (KDM4C) (Homo sapiens, UniProt Q9H3R0).
T1 construct: Full length; host or cells: U2OS
T1 sequence (Q9H3R0 1-1056): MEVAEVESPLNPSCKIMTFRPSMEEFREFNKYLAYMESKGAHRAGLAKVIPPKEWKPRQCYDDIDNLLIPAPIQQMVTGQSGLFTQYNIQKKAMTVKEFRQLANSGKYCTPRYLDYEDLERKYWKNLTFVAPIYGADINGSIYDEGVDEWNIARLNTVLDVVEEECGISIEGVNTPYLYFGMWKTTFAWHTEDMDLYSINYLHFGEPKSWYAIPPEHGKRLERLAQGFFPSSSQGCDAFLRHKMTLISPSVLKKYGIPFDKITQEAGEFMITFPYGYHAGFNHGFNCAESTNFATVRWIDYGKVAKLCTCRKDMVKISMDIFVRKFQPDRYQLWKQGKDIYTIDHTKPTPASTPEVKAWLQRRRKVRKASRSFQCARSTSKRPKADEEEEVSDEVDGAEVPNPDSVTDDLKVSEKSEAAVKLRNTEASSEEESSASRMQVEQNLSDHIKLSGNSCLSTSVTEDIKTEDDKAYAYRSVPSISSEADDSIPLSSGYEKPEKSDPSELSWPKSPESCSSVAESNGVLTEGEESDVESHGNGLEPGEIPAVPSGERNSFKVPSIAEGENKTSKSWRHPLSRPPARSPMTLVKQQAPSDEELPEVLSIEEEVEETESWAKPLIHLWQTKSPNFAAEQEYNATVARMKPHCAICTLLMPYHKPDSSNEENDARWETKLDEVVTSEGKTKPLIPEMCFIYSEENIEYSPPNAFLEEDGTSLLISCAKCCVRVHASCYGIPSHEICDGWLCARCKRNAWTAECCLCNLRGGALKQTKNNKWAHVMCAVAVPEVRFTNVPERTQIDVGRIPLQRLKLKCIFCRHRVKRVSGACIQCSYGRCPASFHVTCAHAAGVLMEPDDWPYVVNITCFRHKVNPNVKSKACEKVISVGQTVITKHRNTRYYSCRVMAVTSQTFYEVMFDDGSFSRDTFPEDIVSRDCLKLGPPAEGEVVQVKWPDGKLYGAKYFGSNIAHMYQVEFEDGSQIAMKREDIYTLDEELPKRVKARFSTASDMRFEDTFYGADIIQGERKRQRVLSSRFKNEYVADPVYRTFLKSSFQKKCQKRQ
Description: Immunofluorescence assay in U2OS cells transfected with pCMVHA JMJD2C (H3K9me3 mark). The note with it: 20 hours. How it is done:
(§1) U2OS cells were seeded 24 hours before transfection. Transfection was performed with Fugene HD transfection reagent as recommended by the manufacturer. 6 hours after transfection, the cells were harvested and seeded into multi well plates into media containing compound. The media used was DMEM containing 5% FBS and pen/strep. 20 hours after incubation of cells with compounds, the cells were washed once in PBS, harvested by fixation with formaldehyde 4% aqueous solution, and washed 2 times in PBS. Subsequently, the cells were permeabilized in PBS with 0.2% Triton X-100 for 10 min at room temperature. Blocking was performed in PBS with 0.2% Triton X-100 and 5% FBS for 45 min at room temperature. The cells were incubated with primary antibodies diluted 1 μg/ml in blocking solution over night at 4° C. The primary antibodies used in the assays were HA.11 (Covance, MMS-101P) and the antibody detecting the mark specified in the Table 6 below. After incubation with primary antibodies, the cells were washed 3 times with PBS, incubated with secondary antibodies diluted 1:1000 (Alexa fluor 594 goat anti rabbit IgG, Invitrogen, A11012; Alexa flour 488 donkey anti mouse IgG, Invitrogen, A21202) and Hoechst, 20 μg/ml (Sigma, 33342) in blocking solution, and washed again 3 times with PBS. Finally, PBS was added and high throughput imaging and analysis were performed by an IN Cell Analyzer 1000 (GE Healthcare). The robot software analyzed individual cells and divided these into HA^+ (transfected cells) and HA^− (non-transfected cells). The IC50 values in Table 7 below were based on an average measure of the staining of the mark specified in the Table 6 below in the transfected cells.

In the next assay the target is T2, PLU1 (KDM5B) (Homo sapiens, UniProt Q9UGL1).
T2 construct: (1-752); host or cells: U2OS
T2 sequence (Q9UGL1 1-752): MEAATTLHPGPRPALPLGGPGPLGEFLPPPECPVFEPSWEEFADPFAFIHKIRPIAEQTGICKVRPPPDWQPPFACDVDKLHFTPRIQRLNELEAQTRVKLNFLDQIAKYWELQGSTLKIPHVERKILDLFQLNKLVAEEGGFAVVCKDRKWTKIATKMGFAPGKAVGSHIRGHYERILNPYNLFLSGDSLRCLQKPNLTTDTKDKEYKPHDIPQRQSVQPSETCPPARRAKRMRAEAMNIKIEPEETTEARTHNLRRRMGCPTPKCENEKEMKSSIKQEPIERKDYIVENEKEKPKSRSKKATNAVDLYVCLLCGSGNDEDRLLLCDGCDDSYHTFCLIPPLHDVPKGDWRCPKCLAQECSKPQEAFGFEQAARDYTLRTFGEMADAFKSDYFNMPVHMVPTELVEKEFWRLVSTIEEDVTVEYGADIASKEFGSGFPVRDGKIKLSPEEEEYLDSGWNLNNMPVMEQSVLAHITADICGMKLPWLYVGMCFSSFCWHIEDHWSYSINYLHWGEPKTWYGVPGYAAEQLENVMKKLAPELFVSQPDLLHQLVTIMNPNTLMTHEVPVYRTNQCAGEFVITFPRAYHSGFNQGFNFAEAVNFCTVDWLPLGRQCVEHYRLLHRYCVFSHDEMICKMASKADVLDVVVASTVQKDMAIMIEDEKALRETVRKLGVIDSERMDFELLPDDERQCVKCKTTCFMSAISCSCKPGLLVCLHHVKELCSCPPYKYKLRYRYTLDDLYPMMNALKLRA
The assay can be described thus: Immunofluorescence assay in U2OS cells transfected with pCMVHA PLU1 (H3K4me2 mark). The note with it: 20 hours. The method, then:
as §1

For assay [1], the system named is demethylation of H3K4 (H3K4me3 mark) in U2OS cells. Description: Histone lysine demethylase immunofluorescence assay, non-transfected U2OS cells (H3K4me3 staining). The note with it: Homo sapiens, 20 hours. The method, then:
Histone Lysine Demethylase Immunofluorescence Assays for IC50 Value Determination, Non-Transfected Cells
U2OS cells were harvested and seeded into multi well plates into media containing compound. The media used was DMEM containing 5% FBS and pen/strep. 20 hours after incubation of cells with compounds, the cells were washed once in PBS, harvested by fixation with formaldehyde 4% aqueous solution, and washed 2 times in PBS. Subsequently, the cells were permeabilized in PBS with 0.2% Triton X-100 for 10 min at room temperature. Blocking was performed in PBS with 0.2% Triton X-100 and 5% FBS for 45 min at room temperature. The cells were incubated with αH3K4me3 primary antibody (Cell Signaling, #9751S) diluted 1:1000 in blocking solution over night at 4° C. After incubation with primary antibody, the cells were washed 3 times with PBS, incubated with secondary antibody diluted 1:1000 (Alexa fluor 594 goat anti rabbit IgG, Invitrogen, A11012) and Hoechst, 20 μg/ml (Sigma, 33342) in blocking solution, and washed again 3 times with PBS. Finally, PBS was added and high throughput imaging and analysis were performed by an IN Cell Analyzer 1000 (GE Healthcare). The IC50 values seen in Table 4 were based on an average measure of the staining of the H3K4me3 mark in cells.

Broadly, the IC50 is the concentration that inhibits the measured activity by half. Low readings indicate greater potency, high ones weaker potency.

Take `CN(C)CCCCNCc1cc(C(=O)O)ccn1` [2-({[4-(dimethylamino)butyl]amino}methyl)pyridine-4-carboxylic acid]: the IC50 against GASC1 (KDM4C) was greater than 50 µM; on PLU1 (KDM5B), 1 to 50 µM.

`O=C(O)c1ccnc(CNCC[C@@H]2CCCN2Cc2ccccc2)c1` [2-[({2-[(2S)-1-benzylpyrrolidin-2-yl]ethyl}amino)methyl] pyridine-4-carboxylic acid]: the IC50 was greater than 50 µM against GASC1 (KDM4C) and 1 to 50 µM against PLU1 (KDM5B).

Regarding `CCN(CCN(C)C)C(=O)CNCc1cc(C(=O)N(C)S(C)(=O)=O)ccn1` [drawing 247, 2-{[({[2-(dimethylamino)ethyl](ethyl)carbamoyl}methyl)amino]methyl}-N-methanesulfonyl-N-methylpyridine-4-carboxamide], in assay [1], the IC50 lay in the range of 1 to 50 µM.

The compound `CCN(CCN(C)C)C(=O)CNCc1cc(C(=O)N2CCOC2=O)ccn1` [drawing 248, N-[2-(dimethylamino)ethyl]-N-ethyl-2-({[4-(2-oxo-1,3-oxazolidine-3-carbonyl)pyridin-2-yl]methyl}amino)acetamide] had a 50% inhibitory concentration (IC50) in assay [1] of 1 to 50 µM.

Compound `CCN(CCN(C)C)C(=O)CNCc1cc(C(=O)OC(CCNC(=O)C(F)(F)F)CC(=O)OC(C)C)ccn1` (centres unmarked) [drawing 250, propan-2-yl 3-(2-{[({[2-(dimethylamino)ethyl](ethyl)carbamoyl}methyl)amino]methyl}pyridine-4-carbonyloxy)-5-(trifluoroacetamido)pentanoate] gave an IC50 in assay [1] of less than 1 µM.

`CCN(CCN(C)C)C(=O)CNCc1cc(C(=O)OCC(F)(F)F)ccn1` [drawing 251, 2,2,2-trifluoroethyl 2-{[({[2-(dimethylamino)ethyl](ethyl)carbamoyl}methyl)amino]methyl}pyridine-4-carboxylate]: in assay [1], the concentration for half-maximal inhibition (IC50) was less than 1 µM.

In the case of `CCN(CCN(C)C)C(=O)CNCc1cc(C(=O)Nc2ncco2)ccn1` [drawing 252, 2-{[({[2-(dimethylamino)ethyl](ethyl)carbamoyl}methyl)amino]methyl}-N-(1,3-oxazol-2-yl)pyridine-4-carboxamide], in assay [1], the IC50 fell in the range of 1 to 50 µM.

In assay [1], `CCN(CCN(C)C)C(=O)CNCc1cc(C(=O)Oc2c(OC(C)C)cccc2OC(C)C)ccn1` [drawing 253, 2,6-bis(propan-2-yloxy)phenyl 2-{[({[2-(dimethylamino)ethyl](ethyl)carbamoyl}methyl)amino]methyl}pyridine-4-carboxylate] came in with an IC50 of 1 to 50 µM.

With `CCN(CCN(C)C)C(=O)CNCc1cc(C(=O)Nc2nccn2C)ccn1` [drawing 254, 2-{[({[2-(dimethylamino)ethyl](ethyl)carbamoyl}methyl)amino]methyl}-N-(1-methyl-1H-imidazol-2-yl)pyridine-4-carboxamide], the IC50 in assay [1] fell in the range of 1 to 50 µM.

`CCN(CCN(C)C)C(=O)CNCc1cc(C(=O)OCCF)ccn1` [drawing 255, 2-fluoroethyl 2-{[({[2-(dimethylamino)ethyl](ethyl)carbamoyl}methyl)amino]methyl}pyridine-4-carboxylate] showed an IC50 in assay [1] of less than 1 µM.

The compound `CCN(CCN(C)C)C(=O)CNCc1cc(C(=O)OCC(F)F)ccn1` [drawing 256, 2,2-difluoroethyl 2-{[({[2-(dimethylamino)ethyl](ethyl)carbamoyl}methyl)amino]methyl}pyridine-4-carboxylate] had an IC50 in assay [1] of less than 1 µM.

Consider `O=C(O)c1ccnc(CNCCCn2ccnc2)c1` [drawing 296, 2-({[3-(1H-imidazol-1-yl)propyl]amino}methyl) pyridine-4-carboxylic acid], for which the values for the IC50 against GASC1 (KDM4C) and against PLU1 (KDM5B) were greater than 50 µM and 1 to 50 µM, respectively.

As to `CN(C)CCNCc1cc(C(=O)O)ccn1` [drawing 297, 2-({[2-(dimethylamino)ethyl]amino}methyl)pyridine-4-carboxylic acid], the IC50 against GASC1 (KDM4C) and against PLU1 (KDM5B) was 1 to 50 µM throughout.

For the compound `O=C(O)c1ccnc(CNC[C@@H](O)CO)c1` [drawing 298, 2-({[(2R)-2,3-dihydroxypropyl]amino}methyl)pyridine-4-carboxylic acid], the IC50 against GASC1 (KDM4C) and against PLU1 (KDM5B) was greater than 50 µM in each case.

For the compound `O=C(O)c1ccnc(CNCC2CC2)c1` [drawing 299, 2-{[(cyclopropylmethyl)amino]methyl}pyridine-4-carboxylic acid], the IC50 at GASC1 (KDM4C) is greater than 50 µM; against PLU1 (KDM5B) it was 1 to 50 µM.

On to `CN(C)CCN(C)Cc1cc(C(=O)O)ccn1` [drawing 301, 2-({[2-(dimethylamino)ethyl](methyl)amino}methyl)pyridine-4-carboxylic acid], for which the IC50 against GASC1 (KDM4C) and at PLU1 (KDM5B) was greater than 50 µM throughout.

On to `C#CCN(C)Cc1cc(C(=O)O)ccn1` [drawing 302, 2-{[methyl(prop-2-yn-1-yl)amino]methyl}pyridine-4-carboxylic acid], for which the concentration for half-maximal inhibition (IC50) against GASC1 (KDM4C) and on PLU1 (KDM5B) was greater than 50 µM in each case.

`O=C(O)c1ccnc(CNCc2ccco2)c1` [drawing 303, 2-{[(furan-2-ylmethyl)amino]methyl}pyridine-4-carboxylic acid]: at GASC1 (KDM4C), the IC50 was 1 to 50 µM.

As for `O=C(O)c1ccnc(CNCC(=O)N2CCCC2)c1` [drawing 305, 2-({[2-oxo-2-(pyrrolidin-1-yl)ethyl]amino}methyl) pyridine-4-carboxylic acid], the concentration for half-maximal inhibition (IC50) is 1 to 50 µM against GASC1 (KDM4C) and greater than 50 µM against PLU1 (KDM5B).

`CN(CCC(N)=O)C(=O)CNCc1cc(C(=O)O)ccn1` [drawing 311, 2-[({[(2-carbamoylethyl)(methyl)carbamoyl]methyl}amino)methyl]pyridine-4-carboxylic acid] registered an IC50 on GASC1 (KDM4C) greater than 50 µM.

Values taken from patent US10221139B2, “Inhibitors of histone demethylases” (Gilead Sciences, Inc., priority 2012, dated 2019).
